Test results as given in publication PMC6274106, “Evaluation and Comparison of the Inhibition Effect of Astragaloside IV and Aglycone Cycloastragenol on Various UDP-Glucuronosyltransferase (UGT) Isoforms” (Molecules, 2016).
pKi: −log10 of the molar value.

Legend:
Type in all cases: biochemical
UGT2B7 [1] = target: T1, UGT2B7 (Homo sapiens, UniProt P16662); assay: 4-MU glucuronidation screen, […] inhibition at […]
T1 construct: recombinant human UGT supersomes (baculovirus-infected insect cells)
T1 sequence (P16662 24-529): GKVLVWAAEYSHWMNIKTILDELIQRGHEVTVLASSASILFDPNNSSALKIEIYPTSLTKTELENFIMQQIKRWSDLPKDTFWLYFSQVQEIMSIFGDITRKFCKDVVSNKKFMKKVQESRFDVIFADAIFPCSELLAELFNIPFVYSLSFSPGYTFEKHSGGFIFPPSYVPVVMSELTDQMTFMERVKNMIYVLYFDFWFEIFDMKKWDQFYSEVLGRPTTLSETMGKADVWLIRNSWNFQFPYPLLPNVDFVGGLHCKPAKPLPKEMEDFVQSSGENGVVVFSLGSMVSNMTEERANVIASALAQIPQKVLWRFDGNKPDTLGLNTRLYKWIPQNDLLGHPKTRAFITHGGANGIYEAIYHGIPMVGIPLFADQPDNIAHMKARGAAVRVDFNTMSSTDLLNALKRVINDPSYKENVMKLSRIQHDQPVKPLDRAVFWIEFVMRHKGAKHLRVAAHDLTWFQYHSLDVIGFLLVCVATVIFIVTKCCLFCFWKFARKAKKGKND

UGT1A8 = target: T2, UGT1A8 (Homo sapiens, UniProt Q9HAW9); assay: 4-MU glucuronidation by recombinant UGT supersomes, UPLC-UV; Dixon and Lineweaver-Burk plots (IC50 […])
T2 construct: recombinant human UGT supersomes (baculovirus-infected insect cells)
T2 sequence (Q9HAW9 26-530): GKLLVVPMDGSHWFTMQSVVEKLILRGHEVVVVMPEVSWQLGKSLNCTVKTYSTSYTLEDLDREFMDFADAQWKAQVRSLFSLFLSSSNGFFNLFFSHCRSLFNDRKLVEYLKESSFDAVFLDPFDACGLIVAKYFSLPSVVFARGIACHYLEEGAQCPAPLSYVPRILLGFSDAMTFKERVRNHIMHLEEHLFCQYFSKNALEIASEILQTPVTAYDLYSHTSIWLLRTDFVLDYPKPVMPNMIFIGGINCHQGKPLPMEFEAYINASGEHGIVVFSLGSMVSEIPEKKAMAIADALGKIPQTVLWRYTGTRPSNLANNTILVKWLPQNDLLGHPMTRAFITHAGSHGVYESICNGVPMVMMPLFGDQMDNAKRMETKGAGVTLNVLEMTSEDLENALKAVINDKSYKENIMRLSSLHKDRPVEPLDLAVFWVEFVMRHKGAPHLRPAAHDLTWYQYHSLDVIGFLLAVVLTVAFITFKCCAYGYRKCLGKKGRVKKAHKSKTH

UGT1A1 = target: T3, UGT1A1 (Homo sapiens, UniProt P22309); assay: 4-MU glucuronidation screen, […] inhibition at […]
T3 construct: recombinant human UGT supersomes (baculovirus-infected insect cells)
T3 sequence (P22309 26-533): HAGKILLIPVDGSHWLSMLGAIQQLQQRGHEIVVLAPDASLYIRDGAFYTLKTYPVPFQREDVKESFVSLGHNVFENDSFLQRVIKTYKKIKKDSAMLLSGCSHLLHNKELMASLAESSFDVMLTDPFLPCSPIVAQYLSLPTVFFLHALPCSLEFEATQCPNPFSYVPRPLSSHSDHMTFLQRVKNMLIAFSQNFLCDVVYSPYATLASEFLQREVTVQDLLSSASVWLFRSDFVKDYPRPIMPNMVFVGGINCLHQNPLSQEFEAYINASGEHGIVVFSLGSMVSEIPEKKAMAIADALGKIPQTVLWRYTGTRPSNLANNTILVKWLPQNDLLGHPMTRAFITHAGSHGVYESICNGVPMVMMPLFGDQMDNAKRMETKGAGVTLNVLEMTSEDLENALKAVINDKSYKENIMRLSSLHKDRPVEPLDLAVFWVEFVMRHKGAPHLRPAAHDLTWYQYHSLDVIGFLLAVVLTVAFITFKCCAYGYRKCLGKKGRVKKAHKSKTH

UGT1A3 = target: T4, UGT1A3 (Homo sapiens, UniProt P35503); assay: 4-MU glucuronidation screen, […] inhibition at […]
T4 construct: recombinant human UGT supersomes (baculovirus-infected insect cells)
T4 sequence (P35503 29-534): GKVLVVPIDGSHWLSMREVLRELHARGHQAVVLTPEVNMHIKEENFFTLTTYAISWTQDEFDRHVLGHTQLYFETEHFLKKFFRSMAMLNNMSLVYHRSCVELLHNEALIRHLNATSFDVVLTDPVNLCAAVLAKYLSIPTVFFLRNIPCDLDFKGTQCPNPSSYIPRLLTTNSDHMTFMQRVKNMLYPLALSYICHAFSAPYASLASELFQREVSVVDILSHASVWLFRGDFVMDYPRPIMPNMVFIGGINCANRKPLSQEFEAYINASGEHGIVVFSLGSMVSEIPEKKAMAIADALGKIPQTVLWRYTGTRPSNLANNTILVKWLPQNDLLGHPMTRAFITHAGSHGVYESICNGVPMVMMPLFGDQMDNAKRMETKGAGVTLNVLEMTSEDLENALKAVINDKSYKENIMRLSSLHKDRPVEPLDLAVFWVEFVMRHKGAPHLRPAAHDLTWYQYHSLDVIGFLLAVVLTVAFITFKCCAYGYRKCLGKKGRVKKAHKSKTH

UGT2B7 [2] = target: T1, UGT2B7; assay: 4-MU glucuronidation by recombinant UGT supersomes, UPLC-UV; Dixon and Lineweaver-Burk plots (IC50 […])

| Compound | inhibition at 100 µM (UGT2B7 [1]) [%] | pKi (UGT1A8) | inhibition at 100 µM (UGT1A1) [%] | inhibition at 100 µM (UGT1A3) [%] | pKi (UGT2B7 [2]) |
| --- | --- | --- | --- | --- | --- |
| CC(C)(O)[C@@H]1CC[C@](C)([C@H]2[C@@H](O)C[C@@]3(C)[C@@H]4C[C@H](O[C@@H]5O[C@H](CO)[C@@H](O)[C@H](O)[C@H]5O)[C@H]5C(C)(C)[C@@H](O[C@@H]6OC[C@@H](O)[C@H](O)[C@H]6O)CC[C@@]56C[C@@]46CC[C@]23C)O1 [AST, astragaloside IV] | 51.5 |  |  |  |  |
| CC(C)(O)[C@@H]1CC[C@](C)([C@H]2[C@@H](O)C[C@@]3(C)[C@@H]4C[C@H](O)[C@H]5C(C)(C)[C@@H](O)CC[C@@]56C[C@@]46CC[C@]23C)O1 [CAG, cycloastragenol] |  | 7.47 | 50.2 | 75.2 | 4.68 |
